The record followed here is patent US11236129B2, “IL-17A binding peptides and medical uses thereof” (Dompe' Farmaceutici S.P.A., priority 2018, dated 2022).

This assay addresses IL-17RA/IL17RC dimerization induced by IL-17A (Homo sapiens, UniProt Q16552). The experiment in a line: IL-17RA/IL17RC dimerization assay in response to IL-17A (PathHunter Cytokine Receptor Assay). Format: cell-based. The following applies: IL-17A at EC80; read-out: IC50 in IL-17RA/IL7RC dimerization assay. In a few lines: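 PathHunter cells with IL-17RA and IL-17RC tagged for β-galactosidase complementation were preincubated 60 min with peptide (1% vehicle). IL-17A was then added at EC80 for 6–16 h at 37 °C, and chemiluminescence was read. Inhibition is relative to the EC80 and vehicle controls.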

Structures are written as SMILES. Residues, ends and D or L forms follow the SMILES beside them. Some results are limits rather than exact numbers.

Sequence of IL-17RA/IL17RC dimerization induced by IL-17A (Q16552 24-155): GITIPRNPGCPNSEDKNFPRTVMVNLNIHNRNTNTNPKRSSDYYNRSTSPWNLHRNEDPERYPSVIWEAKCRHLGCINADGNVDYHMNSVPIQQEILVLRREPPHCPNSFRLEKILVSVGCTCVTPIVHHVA

With `CC[C@H](C)[C@H](NC(C)=O)C(=O)N[C@@H](Cc1c[nH]cn1)C(=O)N[C@@H](C)C(=O)N[C@H](C(=O)N[C@H](C(=O)N1CCC[C@H]1C(=O)N[C@@H](C)C(=O)N[C@@H](CC(=O)O)C(=O)N[C@@H](CC(C)C)C(=O)N[C@@H](Cc1c[nH]c2ccccc12)C(=O)N[C@@H](CC(=O)O)C(=O)N[C@@H](Cc1c[nH]c2ccccc12)C(=O)N[C@H](C(=O)N[C@@H](CC(N)=O)C(=O)N[C@@H](CCCCN)C(N)=O)[C@@H](C)CC)[C@@H](C)CC)[C@@H](C)O` [SEQ ID NO: 167] (Ac-IHATIPADLWDWINK-NH2), the IC50 was below 10 µM.
For the compound `CC[C@H](C)[C@H](NC(C)=O)C(=O)N[C@@H](Cc1c[nH]cn1)C(=O)NCC(=O)N[C@H](C(=O)N[C@H](C(=O)N1CCC[C@H]1C(=O)N[C@@H](C)C(=O)N[C@@H](CC(=O)O)C(=O)N[C@@H](CC(C)C)C(=O)N[C@@H](Cc1c[nH]c2ccccc12)C(=O)N[C@@H](CC(=O)O)C(=O)N[C@@H](Cc1c[nH]c2ccccc12)C(=O)N[C@H](C(=O)N[C@@H](CC(N)=O)C(=O)N[C@@H](CCCCN)C(N)=O)[C@@H](C)CC)[C@@H](C)CC)[C@@H](C)O` [SEQ ID NO: 168] (Ac-IHGTIPADLWDWINK-NH2), the IC50 was below 10 µM.
To `CC[C@H](C)[C@H](NC(C)=O)C(=O)N[C@@H](Cc1c[nH]cn1)C(=O)N[C@@H](CC(C)C)C(=O)N[C@H](C(=O)N[C@H](C(=O)N1CCC[C@H]1C(=O)N[C@@H](C)C(=O)N[C@@H](CC(=O)O)C(=O)N[C@@H](CC(C)C)C(=O)N[C@@H](Cc1c[nH]c2ccccc12)C(=O)N[C@@H](CC(=O)O)C(=O)N[C@@H](Cc1c[nH]c2ccccc12)C(=O)N[C@H](C(=O)N[C@@H](CC(N)=O)C(=O)N[C@@H](CCCCN)C(N)=O)[C@@H](C)CC)[C@@H](C)CC)[C@@H](C)O` [SEQ ID NO: 169] (Ac-IHLTIPADLWDWINK-NH2) belongs below 10 µM; to `CC[C@H](C)[C@H](NC(C)=O)C(=O)N[C@@H](Cc1c[nH]cn1)C(=O)N1CCC[C@H]1C(=O)N[C@H](C(=O)N[C@H](C(=O)N1CCC[C@H]1C(=O)N[C@@H](C)C(=O)N[C@@H](CC(=O)O)C(=O)N[C@@H](CC(C)C)C(=O)N[C@@H](Cc1c[nH]c2ccccc12)C(=O)N[C@@H](CC(=O)O)C(=O)N[C@@H](Cc1c[nH]c2ccccc12)C(=O)N[C@H](C(=O)N[C@@H](CC(N)=O)C(=O)N[C@@H](CCCCN)C(N)=O)[C@@H](C)CC)[C@@H](C)CC)[C@@H](C)O` [SEQ ID NO: 170] (Ac-IHPTIPADLWDWINK-NH2), below 10 µM; to `CC[C@H](C)[C@H](NC(C)=O)C(=O)N[C@@H](Cc1c[nH]cn1)C(=O)N[C@H](C(=O)N[C@H](C(=O)N[C@H](C(=O)N1CCC[C@H]1C(=O)N[C@@H](C)C(=O)N[C@@H](CC(=O)O)C(=O)N[C@@H](CC(C)C)C(=O)N[C@@H](Cc1c[nH]c2ccccc12)C(=O)N[C@@H](CC(=O)O)C(=O)N[C@@H](Cc1c[nH]c2ccccc12)C(=O)N[C@H](C(=O)N[C@@H](CC(N)=O)C(=O)N[C@@H](CCCCN)C(N)=O)[C@@H](C)CC)[C@@H](C)CC)[C@@H](C)O)[C@@H](C)CC` [SEQ ID NO: 171] (Ac-IHITIPADLWDWINK-NH2), below 10 µM.
With `CC[C@H](C)[C@H](NC(C)=O)C(=O)N[C@@H](Cc1c[nH]cn1)C(=O)N[C@@H](Cc1ccc(O)cc1)C(=O)N[C@H](C(=O)N[C@H](C(=O)N1CCC[C@H]1C(=O)N[C@@H](C)C(=O)N[C@@H](CC(=O)O)C(=O)N[C@@H](CC(C)C)C(=O)N[C@@H](Cc1c[nH]c2ccccc12)C(=O)N[C@@H](CC(=O)O)C(=O)N[C@@H](Cc1c[nH]c2ccccc12)C(=O)N[C@H](C(=O)N[C@@H](CC(N)=O)C(=O)N[C@@H](CCCCN)C(N)=O)[C@@H](C)CC)[C@@H](C)CC)[C@@H](C)O` [SEQ ID NO: 172] (Ac-IHYTIPADLWDWINK-NH2), the IC50 is below 10 µM.
To `CC[C@H](C)[C@H](NC(C)=O)C(=O)N[C@@H](Cc1c[nH]cn1)C(=O)N[C@@H](Cc1c[nH]c2ccccc12)C(=O)N[C@H](C(=O)N[C@H](C(=O)N1CCC[C@H]1C(=O)N[C@@H](C)C(=O)N[C@@H](CC(=O)O)C(=O)N[C@@H](CC(C)C)C(=O)N[C@@H](Cc1c[nH]c2ccccc12)C(=O)N[C@@H](CC(=O)O)C(=O)N[C@@H](Cc1c[nH]c2ccccc12)C(=O)N[C@H](C(=O)N[C@@H](CC(N)=O)C(=O)N[C@@H](CCCCN)C(N)=O)[C@@H](C)CC)[C@@H](C)CC)[C@@H](C)O` [SEQ ID NO: 173] (Ac-IHWTIPADLWDWINK-NH2) belongs below 10 µM; to `CC[C@H](C)[C@H](NC(C)=O)C(=O)N[C@@H](Cc1c[nH]cn1)C(=O)N[C@@H](Cc1ccccc1)C(=O)N[C@H](C(=O)N[C@H](C(=O)N1CCC[C@H]1C(=O)N[C@@H](C)C(=O)N[C@@H](CC(=O)O)C(=O)N[C@@H](CC(C)C)C(=O)N[C@@H](Cc1c[nH]c2ccccc12)C(=O)N[C@@H](CC(=O)O)C(=O)N[C@@H](Cc1c[nH]c2ccccc12)C(=O)N[C@H](C(=O)N[C@@H](CC(N)=O)C(=O)N[C@@H](CCCCN)C(N)=O)[C@@H](C)CC)[C@@H](C)CC)[C@@H](C)O` [SEQ ID NO: 174] (Ac-IHFTIPADLWDWINK-NH2), below 10 µM.
For the compound `CC[C@H](C)[C@H](NC(C)=O)C(=O)N[C@@H](Cc1c[nH]cn1)C(=O)N[C@H](C(=O)N[C@@H](CO)C(=O)N[C@H](C(=O)N1CCC[C@H]1C(=O)N[C@@H](C)C(=O)N[C@@H](CC(=O)O)C(=O)N[C@@H](CC(C)C)C(=O)N[C@@H](Cc1c[nH]c2ccccc12)C(=O)N[C@@H](CC(=O)O)C(=O)N[C@@H](Cc1c[nH]c2ccccc12)C(=O)N[C@H](C(=O)N[C@@H](CC(N)=O)C(=O)N[C@@H](CCCCN)C(N)=O)[C@@H](C)CC)[C@@H](C)CC)C(C)C` [SEQ ID NO: 175] (Ac-IHVSIPADLWDWINK-NH2), the IC50 was below 10 µM.
Take `CC[C@H](C)[C@H](NC(C)=O)C(=O)N[C@@H](Cc1c[nH]cn1)C(=O)N[C@H](C(=O)N[C@@H](Cc1ccc(O)cc1)C(=O)N[C@H](C(=O)N1CCC[C@H]1C(=O)N[C@@H](C)C(=O)N[C@@H](CC(=O)O)C(=O)N[C@@H](CC(C)C)C(=O)N[C@@H](Cc1c[nH]c2ccccc12)C(=O)N[C@@H](CC(=O)O)C(=O)N[C@@H](Cc1c[nH]c2ccccc12)C(=O)N[C@H](C(=O)N[C@@H](CC(N)=O)C(=O)N[C@@H](CCCCN)C(N)=O)[C@@H](C)CC)[C@@H](C)CC)C(C)C` [SEQ ID NO: 176] (Ac-IHVYIPADLWDWINK-NH2): the IC50 was below 10 µM.
Consider `CC[C@H](C)[C@H](NC(C)=O)C(=O)N[C@@H](Cc1c[nH]cn1)C(=O)N[C@H](C(=O)N[C@@H](CC(N)=O)C(=O)N[C@H](C(=O)N1CCC[C@H]1C(=O)N[C@@H](C)C(=O)N[C@@H](CC(=O)O)C(=O)N[C@@H](CC(C)C)C(=O)N[C@@H](Cc1c[nH]c2ccccc12)C(=O)N[C@@H](CC(=O)O)C(=O)N[C@@H](Cc1c[nH]c2ccccc12)C(=O)N[C@H](C(=O)N[C@@H](CC(N)=O)C(=O)N[C@@H](CCCCN)C(N)=O)[C@@H](C)CC)[C@@H](C)CC)C(C)C` [SEQ ID NO: 177] (Ac-IHVNIPADLWDWINK-NH2), for which the IC50 was below 10 µM.
`CC[C@H](C)[C@H](NC(C)=O)C(=O)N[C@@H](Cc1c[nH]cn1)C(=O)N[C@H](C(=O)N[C@@H](CCC(N)=O)C(=O)N[C@H](C(=O)N1CCC[C@H]1C(=O)N[C@@H](C)C(=O)N[C@@H](CC(=O)O)C(=O)N[C@@H](CC(C)C)C(=O)N[C@@H](Cc1c[nH]c2ccccc12)C(=O)N[C@@H](CC(=O)O)C(=O)N[C@@H](Cc1c[nH]c2ccccc12)C(=O)N[C@H](C(=O)N[C@@H](CC(N)=O)C(=O)N[C@@H](CCCCN)C(N)=O)[C@@H](C)CC)[C@@H](C)CC)C(C)C` [SEQ ID NO: 178] (Ac-IHVQIPADLWDWINK-NH2): the IC50 was below 10 µM.
`CC[C@H](C)[C@H](NC(C)=O)C(=O)N[C@@H](Cc1c[nH]cn1)C(=O)N[C@H](C(=O)N[C@H](C(=O)N[C@@H](C)C(=O)N1CCC[C@H]1C(=O)N[C@@H](C)C(=O)N[C@@H](CC(=O)O)C(=O)N[C@@H](CC(C)C)C(=O)N[C@@H](Cc1c[nH]c2ccccc12)C(=O)N[C@@H](CC(=O)O)C(=O)N[C@@H](Cc1c[nH]c2ccccc12)C(=O)N[C@H](C(=O)N[C@@H](CC(N)=O)C(=O)N[C@@H](CCCCN)C(N)=O)[C@@H](C)CC)[C@@H](C)O)C(C)C` [SEQ ID NO: 179] (Ac-IHVTAPADLWDWINK-NH2): the IC50 was below 10 µM.
Regarding `CC[C@H](C)[C@H](NC(C)=O)C(=O)N[C@@H](Cc1c[nH]cn1)C(=O)N[C@H](C(=O)N[C@H](C(=O)NCC(=O)N1CCC[C@H]1C(=O)N[C@@H](C)C(=O)N[C@@H](CC(=O)O)C(=O)N[C@@H](CC(C)C)C(=O)N[C@@H](Cc1c[nH]c2ccccc12)C(=O)N[C@@H](CC(=O)O)C(=O)N[C@@H](Cc1c[nH]c2ccccc12)C(=O)N[C@H](C(=O)N[C@@H](CC(N)=O)C(=O)N[C@@H](CCCCN)C(N)=O)[C@@H](C)CC)[C@@H](C)O)C(C)C` [SEQ ID NO: 180] (Ac-IHVTGPADLWDWINK-NH2), the IC50 is below 10 µM.
The figure for `CC[C@H](C)[C@H](NC(C)=O)C(=O)N[C@@H](Cc1c[nH]cn1)C(=O)N[C@H](C(=O)N[C@H](C(=O)N[C@@H](CC(C)C)C(=O)N1CCC[C@H]1C(=O)N[C@@H](C)C(=O)N[C@@H](CC(=O)O)C(=O)N[C@@H](CC(C)C)C(=O)N[C@@H](Cc1c[nH]c2ccccc12)C(=O)N[C@@H](CC(=O)O)C(=O)N[C@@H](Cc1c[nH]c2ccccc12)C(=O)N[C@H](C(=O)N[C@@H](CC(N)=O)C(=O)N[C@@H](CCCCN)C(N)=O)[C@@H](C)CC)[C@@H](C)O)C(C)C` [SEQ ID NO: 181] (Ac-IHVTLPADLWDWINK-NH2) is below 10 µM; for `CC[C@H](C)[C@H](NC(C)=O)C(=O)N[C@@H](Cc1c[nH]cn1)C(=O)N[C@H](C(=O)N[C@H](C(=O)N1CCC[C@H]1C(=O)N1CCC[C@H]1C(=O)N[C@@H](C)C(=O)N[C@@H](CC(=O)O)C(=O)N[C@@H](CC(C)C)C(=O)N[C@@H](Cc1c[nH]c2ccccc12)C(=O)N[C@@H](CC(=O)O)C(=O)N[C@@H](Cc1c[nH]c2ccccc12)C(=O)N[C@H](C(=O)N[C@@H](CC(N)=O)C(=O)N[C@@H](CCCCN)C(N)=O)[C@@H](C)CC)[C@@H](C)O)C(C)C` [SEQ ID NO: 182] (Ac-IHVTPPADLWDWINK-NH2) it is below 10 µM.
